Test results taken from patent US20260250290A1 (BRISTOL-MYERS SQUIBB COMPANY, priority 2023, published 2026).
Counter-ions that a name gives are not always drawn.

target: T1, full length SGK1 (Homo sapiens, UniProt O00141); test: SGK1 inhibition Assay A (Caliper LabChip electrophoretic separation of fluorescent peptide substrate and phosphorylated product); type: biochemical; settings: Assay A; 20 μM ATP, 40 min incubation; read-out: SGK1 IC50
T1 construct: 125 μM full length SGK1 (Life Technologies Part #PR7358A); purchased Life Technologies PR7358A
T1 sequence (O00141 1-431): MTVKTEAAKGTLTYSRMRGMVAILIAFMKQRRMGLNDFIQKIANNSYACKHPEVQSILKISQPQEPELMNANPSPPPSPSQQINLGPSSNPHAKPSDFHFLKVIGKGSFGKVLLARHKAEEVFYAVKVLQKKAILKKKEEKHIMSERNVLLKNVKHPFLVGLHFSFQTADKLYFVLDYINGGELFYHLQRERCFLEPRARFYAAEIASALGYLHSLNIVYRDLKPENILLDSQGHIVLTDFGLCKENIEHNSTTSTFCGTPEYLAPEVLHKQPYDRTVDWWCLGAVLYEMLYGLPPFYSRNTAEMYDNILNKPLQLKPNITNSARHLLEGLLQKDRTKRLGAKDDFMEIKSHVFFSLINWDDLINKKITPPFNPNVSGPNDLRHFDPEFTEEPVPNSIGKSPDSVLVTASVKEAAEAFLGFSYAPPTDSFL

Row | IC50 [nM] | Compound
1 | 11 | CN(C)CCOc1c(C(=O)N[C@@H]2CCCN(c3cc(-c4ccc(C#N)nc4)n4ncnc(N)c34)C2)sc2ccncc12 [Example 666, (R)—N-(1-(4-amino-7-(6-cyanopyridin-3-yl)pyrrolo[2,1-f][1,2,4]triazin-5-yl)piperidin-3-yl)-3-(2-(dimethylamino)ethoxy)thieno[3,2-c]pyridine-2-carboxamide]
2 | 507 | Nc1ccc2[nH]nc(C(=O)N[C@@H]3CCCN(c4cc(-c5cncnc5)n5ncnc(N)c45)C3)c2c1 [Example 690, (R)-5-amino-N-(1-(4-amino-7-(pyrimidin-5-yl)pyrrolo[2,1-f][1,2,4]triazin-5-yl)piperidin-3-yl)-1H-indazole-3-carboxamide]
3 | 335 | CS(=O)(=O)c1ccc(-c2cc(N3CCC[C@@H](C(=O)Nc4ccccc4)C3)c3c(N)ncnn23)cc1 [Example 105, (R)-1-(4-amino-7-(4-(methylsulfonyl)phenyl)pyrrolo [2,1-f][1,2,4]triazin-5-yl)-N-phenylpiperidine-3-carboxamide]
4 | 190 | Nc1ncnn2c(-c3ccc(=O)[nH]c3)cc(N3CCC[C@@H](NC(=O)c4ccc(C(F)F)s4)C3)c12 [Example 526, (R)-N-(1-(4-amino-7-(6-oxo-1,6-dihydropyridin-3-yl)pyrrolo[2,1-f][1,2,4]triazin-5-yl)piperidin-3-yl)-5-(difluoromethyl)thiophene-2-carboxamide]
5 | 111 | C#Cc1cc(N2CCC[C@@H](NC(=O)c3ccc(Cl)s3)C2)c2c(N)ncnn12 [Example 862, (R)—N-(1-(4-amino-7-ethynylpyrrolo[2,1-f][1,2,4]triazin-5-yl)piperidin-3-yl)-5-chlorothiophene-2-carboxamide]
6 | 33 | Cc1cnc(F)cc1-c1cc(N2CCC[C@@H](NC(=O)c3ccc(Cl)s3)C2)c2c(N)ncnn12 [Example 233]
7 | 2 | Nc1ncnn2c(-c3ccnc(F)c3)cc(N3CCC[C@@H](NC(=O)c4ccsc4)C3)c12 [Example 155, (R)-N-(1-(4-amino-7-(2-fluoropyridin-4-yl)pyrrolo[2,1-f][1,2,4]triazin-5-yl)piperidin-3-yl)thiophone-3-carboxamide]
8 | 9 | CN(C)C(=O)COc1cc(Cl)sc1C(=O)N[C@@H]1CCCN(c2cc(-c3ccnc(C(F)F)c3)n3ncnc(N)c23)C1 [Example 339, (R)—N-(1-(4-amino-7-(2-(difluoromethyl)pyridin-4-yl)pyrrolo[2,1-f][1,2,4]triazin-5-yl)piperidin-3-yl)-5-chloro-3-(2-(dimethylamino)-2-oxoethoxy)thiophene-2-carboxamide]
9 | 0.4 | NC(=O)c1ccc(-c2cc(N3CCC[C@@H](NC(=O)c4sc(C5CC5)cc4OC4CNC4)C3)c3c(N)ncnn23)cc1F [Example 389, (R)—N-(1-(4-amino-7-(4-carbamoyl-3-fluorophenyl)pyrrolo[2,1-f][1,2,4]triazin-5-yl)piperidin-3-yl)-3-(azetidin-3-yloxy)-5-cyclopropylthiophene-2-carboxamide]
10 | 43 | COc1ccccc1C(=O)N[C@@H]1CCCN(c2cc(-c3ccc(S(C)(=O)=O)cc3)n3ncnc(N)c23)C1 [Example 49, (R)-N-(1-(4-amino-7-(4-(methylsulfonyl)phenyl)pyrrolo[2,1-f][1,2,4]triazin-5-yl)piperidin-3-yl)-2-methoxybenzamide]
11 | 2 | CC(=O)N1CC=C(c2cc(N3CCC[C@@H](NC(=O)c4cccc(N5CCN6CCCC6C5)n4)C3)c3c(N)ncnn23)C1 (stereo partly drawn) [Example 769, N-((R)-1-(7-(1-acetyl-2,5-dihydro-1H-pyrrol-3-yl)-4-aminopyrrolo[2,1-f][1,2,4]triazin-5-yl)piperidin-3-yl)-6-(hexahydropyrrolo[1,2-a]pyrazin-2(1H)-yl)picolinamide]
12 | 28 | Nc1ncnn2c(C3=CCN(C(=O)c4ccncc4)C3)cc(N3CCC[C@@H](NC(=O)c4ccc(Cl)s4)C3)c12 [Example 902, (R)-N-(1-(4-amino-7-(1-isonicotinoy1-2,5-dihydro-1H-pyrrol-3-yl)pyrrolo[2,1-f][1,2,4]triazin-5-yl)piperidin-3-y1)-5-chlorothiophene-2-carboxamide]
13 | 6 | Nc1ncnn2c(C3=CCN(C(=O)[C@H]4CCOC4)C3)cc(N3CCC[C@@H](NC(=O)c4ccc(Cl)s4)C3)c12 [Example 888, N-((R)-1-(4-amino-7-(1-((S)-tetrahydrofuran-3-carbonyl)-2,5-dihydro-1H-pyrrol-3-yl)pyrrolo[2,1-f][1,2,4]triazin-5-yl)piperidin-3-y1)-5-chlorothiophene-2-carboxamide]
14 | 3 | Cc1csc(C(=O)N[C@@H]2CCCN(c3cc(-c4ccc(S(C)(=O)=O)cc4)n4ncnc(N)c34)C2)c1 [Example 97, (R)-N-(1-(4-amino-7-(4-(methylsulfonyl)phenyl)pyrrolo[2,1-f][1,2,4]triazin-5-yl)piperidin-3-yl)-4-methylthiophene-2-carboxamide, TFA]
15 | 12 | CC(=O)N1CC=C(c2cc(N3CCC[C@@H](NC(=O)c4cccc(OCCN(C)C)n4)C3)c3c(N)ncnn23)C1 [Example 702, (R)-N-(1-(7-(1-acetyl-2,5-dihydro-1H-pyrrol-3-yl)-4-aminopyrrolo[2,1-f][1,2,4]triazin-5-yl)piperidin-3-yl)-6-(2-(dimethylamino)ethoxy) picolinamide]
16 | 91 | COC(=O)c1ccc(-c2cc(N3CCC[C@@H](NC(=O)c4ccc(Cl)s4)C3)c3c(N)ncnn23)n1C [Example 238, methyl 5-{4-amino-5-[(3R)-3-(5-chlorothiophene-2-amido)piperidin-1-yl]pyrrolo[2,1-f] [1,2,4]triazin-7-yl}-1-methyl-1H-pyrrole-2-carboxylate]
17 | 7 | Cc1nc(OC2CCN(C(C)C)CC2)c(C(=O)N[C@@H]2CCCN(c3cc(-c4ccc(C#N)nc4)n4ncnc(N)c34)C2)s1 [Example 363, (R)-N-(1-(4-amino-7-(6-cyanopyridin-3-yl)pyrrolo[2,1-f][1,2,4]triazin-5-yl)piperidin-3-yl)-4-((1-isopropylpiperidin-4-yl)oxy)-2-methylthiazole-5-carboxamide]
18 | 36 | CN(C)CCOc1cc(Cl)sc1C(=O)N[C@@H]1CCCN(c2cc(C3=CCN(C(=O)C4CC(F)(F)C4)CC3)n3ncnc(N)c23)C1 [Example 184, (R)-N-(1-(4-amino-7-(1-(3,3-difluorocyclobutane-1-carbonyl)-1,2,3,6-tetrahydropyridin-4-yl)pyrrolo[2,1-f][1,2,4]triazin-5-yl)piperidin-3-yl)-5-chloro-3-(2-(dimethylamino)ethoxy) thiophene-2-carboxamide, 2 TFA]
19 | 3 | CN(C)CCOc1cc(C(F)F)sc1C(=O)N[C@@H]1CCCN(c2cc(-c3ccc(C#N)nc3)n3ncnc(N)c23)C1 [Example 310, (R)-N-(1-(4-amino-7-(6-cyanopyridin-3-yl)pyrrolo[2,1-f] [1,2,4]triazin-5-yl)piperidin-3-yl)-5-(difluoromethyl)-3-(2-(dimethylamino)ethoxy)thiophene-2-carboxamide]
20 | 7 | CC(=O)N1CC=C(c2cc(N3CCC[C@@H](NC(=O)c4ccc(C#N)s4)C3)c3c(N)ncnn23)C1 [Example 714, (R)-N-(1-(7-(1-acetyl-2,5-dihydro-1H-pyrrol-3-yl)-4-aminopyrrolo[2,1-f][1,2,4]triazin-5-yl)piperidin-3-yl)-5-cyanothiophone-2-carboxamide]
21 | 19 | Nc1ncnn2c(-c3ccnc(C(F)F)c3)cc(N3CCC[C@@H](NC(=O)c4sc(Cl)cc4OCCN4CC(F)(F)C4)C3)c12 [Example 297]
22 | 18 | CC1CC1C(=O)N1CC=C(c2cc(N3CCC[C@@H](NC(=O)c4sc(Cl)cc4OCCN4CCOCC4)C3)c3c(N)ncnn23)C1 (stereo partly drawn) [Example 266, N-((3R)-1-(4-amino-7-(1-(2-methylcyclopropane-1-carbonyl)-2,5-dihydro-1H-pyrrol-3-yl)pyrrolo[2,1-f][1,2,4]triazin-5-yl)piperidin-3-yl)-5-chloro-3-(2-morpholinoethoxy)thiopbene-2-carboxamide]
23 | 3 | COC(=O)N1CC=C(c2cc(N3CCC[C@@H](NC(=O)c4sc(Cl)cc4O[C@@H]4C[C@H]5CC[C@@H](C4)N5C)C3)c3c(N)ncnn23)C1 [Example 613, methyl 3-(4-amino-5-((R)-3-(5-chloro-3-(((1R,3s,5S)-8-methyl-8-azabicyclo[3.2.1]octan-3-yl)oxy)thiophene-2-carboxamido)piperidin-1-yl)pyrrolo[2,1-f][1,2,4]triazin-7-yl)-2,5-dihydro-1H-pyrrole-1-carboxylate]
24 | 134 | CC(C)N1CCC(c2cc(C(F)F)sc2C(=O)N[C@@H]2CCCN(c3cc(-c4ccc(C#N)nc4)n4ncnc(N)c34)C2)CC1 [Example 397, (R)-N-(1-(4-amino-7-(6-cyanopyridin-3-yl)pyrrolo[2,1-f][1,2,4]triazin-5-yl)piperidin-3-yl)-5-(difluoromethyl)-3-(1-isopropylpiperidin-4-yl)thiophene-2-carboxamide]
25 | 2 | CN(C)CCOc1cc(C2CC2)sc1C(=O)N[C@@H]1CCCN(c2cc(-c3ccc(C(N)=O)c(F)c3)n3ncnc(N)c23)C1 [Example 373, (R)-N-(1-(4-amino-7-(4-carbamoyl-3-fluorophenyl)pyrrolo[2,1-f][1,2,4]triazin-5-yl)piperidin-3-yl)-5-cyclopropyl-3-(2-(dimethylamino)ethoxy) thiophene-2-carboxamide]
